In EPA's ToxRefDB 2:

Assays:
mouse [1] = conditions: Multigenerational reproductive toxicity study, b6c3f1, Oral, Feed, dose end: 2 generation
mouse [2] = conditions: Subchronic oral toxicity in rodents, b6c3f1, Feed, dose end: 13 week, group: systemic
rat [3] = conditions: Subchronic oral toxicity in rodents, fischer, Feed, dose end: 13 week, group: systemic
mouse [4] = conditions: Carcinogenicity, b6c3f1, Oral, Feed, dose end: 2 year, group: systemic
rat [5] = conditions: Combined chronic toxicity/carcinogenicity, fischer, Oral, Feed, dose end: 2 year, group: systemic
rat [6] = conditions: Subchronic oral toxicity in rodents, other, Gavage/Intubation, dose end: 90 day, group: systemic
[7] = group: offspring, systemic / in life observation / body weight / offspring (pup) weight
[8] = group: parental, systemic / in life observation / body weight / body weight + systemic / in life observation / food consumption / food consumption + systemic…
[9] = group: parental, systemic / in life observation / body weight / body weight + systemic / organ weight / kidney / relative to body weight + systemic / in life…
[10] = group: reproductive, reproductive / reproductive performance / reproductive performance other / NOS + reproductive / reproductive performance / estrous cycle / …
[11] = systemic / in life observation / body weight / body weight + systemic / in life observation / body weight / body weight gain
[12] = systemic / pathology microscopic / kidney / hyaline droplet
[13] = systemic / in life observation / body weight / body weight + systemic / pathology microscopic / lung / hyperplasia
[14] = systemic / pathology microscopic / lung / adenoma/carcinoma combined
[15] = systemic / pathology microscopic / kidney / hyperplasia + systemic / pathology microscopic / kidney / pigmentation
[16] = systemic / pathology microscopic / kidney / hyperplasia + systemic / pathology microscopic / kidney / pigmentation + systemic / pathology …
[17] = systemic / clinical chemistry / 5' nucleotidase / 5' nucleotidase + systemic / clinical chemistry / protein / protein + systemic / in life …
[18] = systemic / clinical chemistry / 5' nucleotidase / 5' nucleotidase + systemic / organ weight / liver / relative to body weight + systemic / …

SMILES: O=C(O)c1ccc([N+](=O)[O-])cc1 [4-Nitrobenzoic acid]
- LEL (mouse [1]; [7]): 500 mg/kg/day
- LOAEL (mouse [1]; [7]): > 2400 mg/kg/day
- NEL (mouse [1]; [7]): < 500 mg/kg/day
- NOAEL (mouse [1]; [7]): ≥ 2400 mg/kg/day
- LEL (mouse [1]; [8]): 500 mg/kg/day
- NEL (mouse [1]; [8]): < 500 mg/kg/day
- LOAEL (mouse [1]; [9]): > 2400 mg/kg/day
- NOAEL (mouse [1]; [9]): ≥ 2400 mg/kg/day
- LOAEL (mouse [1]; [10]): > 2400 mg/kg/day
- NEL (mouse [1]; [10]): 500 mg/kg/day
- NOAEL (mouse [1]; [10]): ≥ 2400 mg/kg/day
- LEL (mouse [1]; group: reproductive, reproductive / reproductive performance / reproductive performance other / NOS + reproductive / reproductive performance / gestational …): 1100 mg/kg/day
- LEL (mouse [2]; [11]): 170 mg/kg/day
- LOAEL (mouse [2]; [11]): 670 mg/kg/day
- NEL (mouse [2]; [11]): < 170 mg/kg/day
- NOAEL (mouse [2]; systemic / in life observation / body weight / body weight + systemic / in life observation / body weight / body weight gain + systemic / …): 330 mg/kg/day
- LOAEL (rat [3]; systemic / in life observation / body weight / body weight gain + systemic / organ weight / spleen / relative to body weight + systemic / …): 310 mg/kg/day
- LEL (rat [3]; [12]): 40 mg/kg/day
- NEL (rat [3]; [12]): < 40 mg/kg/day
- NOAEL (rat [3]; systemic / pathology microscopic / kidney / hyaline droplet + systemic / in life observation / body weight / body weight gain + systemic / …): 160 mg/kg/day
- LOAEL (mouse [4]; [13]): > 675 mg/kg/day
- NOAEL (mouse [4]; [13]): ≥ 675 mg/kg/day
- LEL (mouse [4]; [14]): 170 mg/kg/day
- NEL (mouse [4]; [14]): < 170 mg/kg/day
- LEL (rat [5]; [15]): 50 mg/kg/day
- NEL (rat [5]; [15]): < 50 mg/kg/day
- LOAEL (rat [5]; [16]): 100 mg/kg/day
- NOAEL (rat [5]; [16]): 50 mg/kg/day

SMILES: N#CC(Cl)Cl [Dichloroacetonitrile]
- LOAEL (rat [6]; [17]): > 65 mg/kg/day
- NOAEL (rat [6]; [17]): ≥ 65 mg/kg/day
- LEL (rat [6]; [18]): 8 mg/kg/day
- NEL (rat [6]; [18]): < 8 mg/kg/day
